The target in series [1] is T1, OATP1B3 (Homo sapiens, UniProt Q9NPD5). As to conditions: cited from earlier work.
The target of series [2] is T2, OATP1B1 (Homo sapiens, UniProt Q9Y6L6).
T2 sequence (Q9Y6L6 1-691): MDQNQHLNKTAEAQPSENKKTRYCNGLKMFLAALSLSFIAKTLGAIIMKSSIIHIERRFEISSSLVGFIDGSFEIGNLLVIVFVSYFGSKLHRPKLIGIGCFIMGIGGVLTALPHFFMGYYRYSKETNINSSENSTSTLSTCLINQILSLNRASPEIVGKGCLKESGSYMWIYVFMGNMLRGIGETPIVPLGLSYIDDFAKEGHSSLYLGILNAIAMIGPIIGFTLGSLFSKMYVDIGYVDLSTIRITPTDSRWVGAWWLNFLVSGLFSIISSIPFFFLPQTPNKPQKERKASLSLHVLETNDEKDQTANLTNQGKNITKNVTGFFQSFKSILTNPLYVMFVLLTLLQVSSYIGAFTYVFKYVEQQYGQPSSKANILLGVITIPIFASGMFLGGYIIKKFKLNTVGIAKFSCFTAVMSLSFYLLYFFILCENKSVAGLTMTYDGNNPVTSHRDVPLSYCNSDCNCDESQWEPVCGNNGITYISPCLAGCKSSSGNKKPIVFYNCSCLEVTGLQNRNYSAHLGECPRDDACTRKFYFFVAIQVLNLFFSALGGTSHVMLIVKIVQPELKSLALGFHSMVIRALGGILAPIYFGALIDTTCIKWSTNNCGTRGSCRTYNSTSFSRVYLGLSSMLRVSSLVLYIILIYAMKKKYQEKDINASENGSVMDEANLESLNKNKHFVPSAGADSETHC
The note with it: cited from earlier work.

Series [3] concerns the target T1, OATP1B3. Kind of series: in vitro.
Series [4] deals with T2, OATP1B1.
In series [5] the target is T1, OATP1B3.
For series [6], the system named is primary rat hepatocytes.
Series [7] relates to primary rat hepatocytes. The note with it: 50 µM.
In series [8] the test system is primary rat hepatocytes. This is another data set of the same source.
In series [9] the target is T2, OATP1B1. The series can be described thus: Sodium fluorescein accumulation in OATP1B1-transfected HEK293T cells. The note with it: read-out: Ki for inhibition of sodium fluorescein accumulation, OATP1B1; competitive; inhibitor 10 min before, 3 min co-incubation; ± s.e. of the estimate; R2 0.79.
Series [10] has as its target T1, OATP1B3. The note with it: read-out: Ki for inhibition of sodium fluorescein accumulation, OATP1B3; competitive; inhibitor 10 min before, 3 min co-incubation; ± s.e. of the estimate; R2 0.91.
Substrate in series [11]: O=C1OC2(c3ccc(O)cc3Oc3cc(O)ccc32)c2ccccc21
The series can be described thus: cells, lysate or membranes. As to conditions: other: ± s.e. of the estimate.

Like-named read-outs stand apart in the source and are kept apart here.

By Km is commonly meant the concentration of substrate that gives half-maximal velocity. As a reminder, the IC50 is the concentration needed to halve the response being measured. Low readings indicate higher potency, high ones lower potency. By Ki is commonly meant the equilibrium dissociation constant of an inhibitor or competing ligand from its target.

T1 sequence (Q9NPD5 whole entry): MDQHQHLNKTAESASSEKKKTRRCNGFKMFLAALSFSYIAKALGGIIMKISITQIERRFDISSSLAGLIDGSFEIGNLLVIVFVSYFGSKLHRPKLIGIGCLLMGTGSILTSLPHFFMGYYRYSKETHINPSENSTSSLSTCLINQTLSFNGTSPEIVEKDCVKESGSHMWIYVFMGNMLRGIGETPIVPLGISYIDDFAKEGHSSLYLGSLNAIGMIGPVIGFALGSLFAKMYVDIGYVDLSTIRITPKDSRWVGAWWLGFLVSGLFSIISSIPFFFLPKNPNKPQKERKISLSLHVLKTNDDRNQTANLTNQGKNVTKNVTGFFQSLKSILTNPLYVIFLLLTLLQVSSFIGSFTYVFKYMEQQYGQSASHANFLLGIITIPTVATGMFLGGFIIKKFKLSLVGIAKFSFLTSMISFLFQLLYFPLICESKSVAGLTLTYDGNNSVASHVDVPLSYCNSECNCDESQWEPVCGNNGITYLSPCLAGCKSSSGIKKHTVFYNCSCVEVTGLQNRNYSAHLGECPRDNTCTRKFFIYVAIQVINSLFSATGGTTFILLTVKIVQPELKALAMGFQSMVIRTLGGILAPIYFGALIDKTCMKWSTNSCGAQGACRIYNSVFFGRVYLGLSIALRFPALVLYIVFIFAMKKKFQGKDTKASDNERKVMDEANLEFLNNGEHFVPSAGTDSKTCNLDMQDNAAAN

With Nostocyclopeptide-M1, on OATP1B3 [1], the “Potency as OATP1B3 inhibitor compared with the cAMP analogs” value is reported as “more potent inhibitor”. Also, the “Potency as OATP1B1 inhibitor compared with the cAMP analogs” value at OATP1B1 [2] is given as “more potent inhibitor”.

Turning to `O=C1OC2(c3ccc(O)cc3Oc3cc(O)ccc32)c2ccccc21` [fluorescein, sodium fluorescein], the Km on OATP1B3 [3] worked out at 285 ± 134 µM.

On OATP1B1 [4], `CO[C@H]1C2OP(O)(=S)OC[C@H]2O[C@H]1n1c(Sc2ccc(Cl)cc2)nc2c(N)ncnc21` (single isomer, unassigned) [Sp-8-pCPT-2′-O-Me-cAMPS, 8-(4-Chlorophenylthio)-2′-O-methyladenosine-3′, 5′-cyclic monophosphorothioate, Sp- isomer] showed an IC50 of 19.9 µM and a Ki of 6.63 µM. At OATP1B3 [5], the 50% inhibitory concentration (IC50) was 8.7 µM and affinity was put at a Ki of 2.33 µM. In the series on primary rat hepatocytes [6], the “Effect on [3H]-Nod accumulation in hepatocytes” value is on record as “almost completely inhibited”. The “Effect on [14C]-glycocholic acid accumulation in hepatocytes” value in the series on primary rat hepatocytes [7] is reported as “almost completely inhibited”. Further, in the series with primary rat hepatocytes [8], the “Effect on Nod-induced hepatocyte apoptosis (Fig. 2A)” value is given as “clear inhibition”.

In the case of `CO[C@@H]1[C@@H]2OP(=O)(O)OC[C@H]2O[C@H]1n1c(Sc2ccc(Cl)cc2)nc2c(N)ncnc21` [8-pCPT-2′-O-Me-cAMP, 8-(4-Chlorophenylthio)-2′-O-methyladenosine-3′, 5′-cyclic monophosphate], at OATP1B1 [4], the “Effect on Nod-induced apoptosis / Nod transport, OATP1B1-transfected HEK293T cells” value is “abolished”; half-maximal inhibition (IC50) was put at 46.4 µM; the affinity, expressed as Ki, was 15.5 µM. Also, at OATP1B3 [5], the “Effect on Nod-induced apoptosis / Nod transport, OATP1B3-transfected HEK293T cells” value was “abolished”; the IC50 is 12.6 µM; affinity was put at a Ki of 3.38 µM. On OATP1B1 [9], the Ki was 46 ± 21 µM. In addition, in the series with primary rat hepatocytes [6], the “Effect on [3H]-Nod accumulation in hepatocytes” value is “almost completely inhibited”. Moreover, the “Effect on [14C]-glycocholic acid accumulation in hepatocytes” value in the series with primary rat hepatocytes [7] is on record as “almost completely inhibited”. In addition, the Ki on OATP1B3 [10] is 75 ± 22 µM. In the series with primary rat hepatocytes [8], the “Effect on Nod-induced hepatocyte apoptosis (Fig. 1A)” value is listed as “inhibited completely apoptotic morphology” and the “Effect on Nod-induced hepatocyte apoptosis (Fig. 2A)” value is listed as “clear inhibition”.

B1: OATP1B1 (Homo sapiens) (protein)
chain: T2 sequence (Q9Y6L6 1-691)
On to B1, for which the Km in [11] was 402 ± 140 µM.

(Values after paper PMC3989234, “Introduction of Aromatic Ring-Containing Substituents in Cyclic Nucleotides Is Associated with Inhibition of Toxin Uptake by the Hepatocyte Transporters OATP 1B1 and 1B3” (PLoS ONE, 2014).)
